Data taken from US4737517A, “Coumarin derivatives, pharmaceutical compositions containing the same, and the use thereof in the treatment of cancer” (FIDIA, S.p.A., priority 1983, dated 1988).
Where two headings read alike, the source gives them in different places.

Columns and labels:
[1] = test system: coagulation; assay: Thrombotest on capillary blood (anticoagulating effect); format: in vivo, mice (C57B1/6J); conditions: oral, controls 31.4 ± 1.7
Protocol: In a separate experiment, the anticoagulating activity of the compounds is verified on the same strain of mice at the same doses used for antimetastatic activity evaluation.
The effect on coagulation is measured by a thrombotest on capillary blood taken from the retroorbital cavity (Owren, P. A. et al. Lancet ii, 754-758, 1959).
(§1) The anticoagulating effect measured by the "thrombotest", the antitumor effect measured by the decrease in weight of the primary tumor and the antimetastatic effect shown as the number of metasteses present in the lungs, are reported in Table 2. While the antitumor and antimetastatic effects of Warfarin and the two new products according to the present invention are roughly equal, the strong anticoagulating effect is absent in the two new products of the invention. This is a completely unexpected result.

[2] = test system: 3 LL carcinoma cells (Lewis lung carcinoma); assay: Antitumor and antimetastatic activity in mice implanted with 3 LL Lewis lung carcinoma; format: in vivo, male mice of the C57B1/6J strain; conditions: oral; for antitumoral and antimetastatic activity (in words): in vivo on mice; for No. of metastases: lungs, controls 21.8 ± 4.9; for No. of metastases / Primary Tumor Weight: 25th day after transplant; for Primary Tumor Weight: controls 9087 ± 386
Protocol: This activity is to be seen for instance after administration of doses of between 0.2 mg/kg and 10 mg/kg by the oral route, as illustrated by the following experiments.
1×10^5 3 LL carcinoma cells (Lewis lung carcinoma) are implanted by intramuscular injection in the paws of male mice of the C57B1/6J strain, weighing about 20-22 g. This operation is effected as described in the literature (Poggi A. et al. Cancer Res. 37, 272-277, 1977). The growth of the tumor is observed until the 25th day after transplant. On this day the animals are sacrificed and the primary tumor and lungs are removed in order to evaluate the growth of the primary tumor and the number of metastases. Pharmacological treatment by the oral route begins 2 days before transplant of the tumor and continues until sacrifice. The substances are dissolved in tap water and are changed every 24 hours.
Table 2 reports the results obtained with the two coumarin derivatives 19 and 26, previously mentioned in comparison to Warfarin, the well-known […] and antimetastatic compound, which is also a coumarin derivative. Warfarin's antimetastatic activity is widely documented both experimentally (Zacharski, L. R. et al. Cancer 44, 732-741, 1979 and Poggi, A. et al. Lancet i 163-164, 1978) and clinically (Zacharski, L. R. et al. J. Am. Med. Assoc. 245, 831-835, 1981). […] This effect is measured by the number of metastases (Zacharski, L. R. et al. Cancer 44, 732-741, 1979 and Poggi, A. et al. Lancet i 163-164, 1978).
as §1

[3] = Acute toxicity in the mouse, oral; parameters: species or system mouse (Swiss); conditions: in vivo, aqueous solution, up to 14 days, Litchfield and Wilcoxon
Protocol: Acute toxicity in the mouse: groups of Swiss mice (male+female) are treated with graduated doses ranging from 0.125 g/kg to 5 g/kg of body weight with compounds 19 to 26. The compounds are administered orally by intubation and dissolved in water.
Subsequent death may be immediate or may occur at any time up to 14 days after treatment. The lethal dose 50 (LD50), that is, the dose which causes the death of 50% of the animals, is evaluated by the method of Litchfield and Wilcoxon (J. Pharmacol. Exp. Ther. 96, 99-113, 1949).

[4] = test system: platelet hyper-aggregation induced by ADP; assay: Inhibition of ADP-induced platelet hyperaggregation in vitro (Born's method, aggregometer ELVI 840); format: cell-based, New Zealand rabbits; conditions: Oryctolagus cuniculus, 0.5 h, read-out: Inhibition of platelet hyper-aggregation induced by ADP
Protocol: Two separate centrifugations are effected (at 1000 rpm and at 6000 rpm), thus obtaining PRP ([…]) and PPP ([…]); the first is diluted with the second in order to obtain a platelet concentration of 300,000 per mm^3 (the count is effected in a Buerker apparatus). The compounds with a platelet antiaggregating activity of the present invention are added at the desired concentrations and incubated for 30 minutes at 37° C. with the aggregating agents. […] The various compounds represented by the numbers in the first column are identifiable by the numbers in the second column which refer to the examples described below in this specification.

[5] = Acute toxicity in the rat, oral; parameters: species or system rat (Sprague Dawley); conditions: in vivo, aqueous solution, up to 14 days, Litchfield and Wilcoxon
Protocol: Acute toxicity in the rat: groups of Sprague Dawley rats (male+female) are treated with graduated doses ranging from 0.125 g/kg of body weight to 10 g/kg of body weight of the above mentioned compounds in aqueous solution. The compounds are administered orally by intubation. Subsequent death may be immediate or may occur at any time up to 14 days after treatment.
The lethal dose 50 (LD50), that is, the dose which causes the death of 50% of the animals, is evaluated by the method of Litchfield and Wilcoxon (J. Pharmacol. Ex. Ther. 96, 99-113, 1949).

[6] = test system: lung carcinoma; conditions: cited from earlier work
[7] = test system: 3 LL carcinoma cells (Lewis lung carcinoma); conditions: number of metastases; mice of the C57B1/6J strain; cited from earlier work
[8] = 1st adminis. 2.1 mg/kg, 2nd adminis. 0.5 mg/kg
[9] = 1st adminis. 1.5 mg/kg, 2nd adminis. 0.3 mg/kg

| SMILES | Thrombotest [1, 8] | antitumoral and antimetastatic activity (in words) [2] | No. of metastases [2, 8] | Primary Tumor Weight [2, 8] | LD50 at 336 h [3] | inhibition at 100 µg/mL [4] | LD50 at 336 h [5] | Thrombotest ([1]; doses not given) | No. of metastases ([2]; doses not given) | Primary Tumor Weight ([2]; doses not given) | anticoagulating activity in antitumor therapy (in words) ([6]; human, in vivo) | survival time in patients with lung carcinoma (in words) ([6]; in association with chemotherapy and radiation) | antimetastatic effect on Lewis lung carcinoma (in words) [7] | Thrombotest [1, 9] | No. of metastases [2, 9] | Primary Tumor Weight [2, 9] | inhibition at 100 µg/mL ([4]; ADP 20 μg/ml, 100 γ/ml of active compound, rabbit PRP, incubated 30 minutes at 37° C) |
| --- | --- | --- | --- | --- | --- | --- | --- | --- | --- | --- | --- | --- | --- | --- | --- | --- | --- |
| C=CCc1c(O)c(CN2CCN(CCO)CC2)cc2c(C)cc(=O)oc12.ClOCl [Compound 26, 4-methyl-6-[[4-(2-hydroxyethyl)-1-piperazinyl]methyl]-7-hydroxy-8-allylcumarin dichlorohydrate] | 33.4 ± 1.2 | antitumoral and antimetastatic activity | 9.8 ± 2.8 | 6789 ± 349 mg | 1950 mg/kg | 23% | 3160 mg/kg | – | – | – | – | – | – | – | – | – | – |
| CC(=O)CC(c1ccccc1)c1c(O)c2ccccc2oc1=O (centres unmarked) [Warfarin, reference compound] | – | – | – | – | – | – | – | 180 | 12.4 ± 0.9 | 6274 ± 690 mg | strong anticoagulating activity | prolongs survival time | has an antimetastatic effect | – | – | – | – |
| C=CCc1c(O)c(CN(C)C)cc2c(C)cc(=O)oc12.Cl [Compound 19, 4-methyl-6-dimethylaminomethyl-7-hydroxy-8-allylcumarin hydrochloride] | – | antitumoral and antimetastatic activity | – | – | 1210 mg/kg | – | 2000 mg/kg | – | – | – | – | – | – | 29.3 ± 1.7 | 11.4 ± 3.3 | 6731 ± 533 mg | 40% |
